Data taken from patent publication EP1960421B1, “NEW POLYPEPTIDES AND THEIR USE” (SEDERMA, priority 2005, dated 2007).
Peptide text beside a SMILES is read from it. * marks the point of attachment. Palmitoyl = CCCCCCCCCCCCCCCC(=O)*

Test: Solubility in the cell culture conditions (medium without foetal calf serum and few solvent)
Format: physicochemical
Conditions: cell culture medium without foetal calf serum and few solvent (DMSO 0.08%)
Experimental: After 3 days of incubation, supernatants were collected and frozen. Survival was estimated on cell layer using a fluorescent probe. Collagen I was estimated using an original direct ELISA method. Results: TGF-b1 should be promoter of Collagen I synthesis. Statistical analysis were performed on Collagen I data (n=3 to n=5 / assay). Results obtained with molecules were compared to negative control. A Student t test for non paired values was used; significativity was obtained if p < 0.05 or p < 0.01. In our cell culture conditions (medium without foetal calf serum and few solvent), Pal-Gly-Lys-Thr-Thr-Lys-Ser was insoluble for concentrations > 5.4 ppm. Table 1: Effect of Pal-Gly-Lys-Thr-Thr-Lys-Ser (SEQ ID NO: 14) on NHDF's Collagen I. Results (from 4 independent experimentations) are in percent compared to the negative control.

CCCCCCCCCCCCCCCC(=O)NCC(=O)N[C@@H](CCCCN)C(=O)N[C@H](C(=O)N[C@H](C(=O)N[C@@H](CCCCN)C(=O)N[C@@H](CO)C(=O)O)[C@@H](C)O)[C@@H](C)O [N-Palmitoyl-Gly-Lys-Thr-Thr-Lys-Ser] (Palmitoyl-GKTTKS-OH)
insoluble for concentrations: > 5.4 ppm
